Reference: patent US10550100B2, “5-[3-[piperzin-1-yl]-3-oxo-propyl]-imidazolidine-2,4-dione derivatives as ADAMTS 4 and 5 inhibitors for treating E.G. osteoarthritis” (GALAPAGOS NV, priority 2016, dated 2020)
Where two headings read alike, the source gives them in different places.

Assays:
Type in all cases: biochemical
human MMP13 [1] = target: T1, human MMP13 (Homo sapiens (Human), UniProt P45452); experiment: hMMP13 390 MMP FRET Substrate I cleavage assay, Protocol 1; details: Protocol 1, 390 MMP FRET Substrate I; read-out: hMMP-13 potency IC50
Experimental: (§1) The basis for the assay is the cleavage of the substrate 390 MMP FRET Substrate I (Anaspec Cat# AS-27076) by human MMP13 (Chemicon, Cat#CC068).
(§2) Human MMP13 is preactivated by incubated the enzyme in the same buffer complemented with 1 mM freshly prepared p-Aminophenylmercuric acetate (AMPA) for 1 h at 37° C.
(§3) The reaction is initiated by adding to the assay plate 390 MMP FRET Substrate I (10 μL, 2.5 μM) in the same buffer.
(§4) Finally, the fluorescence is read on the Envision (Perkin Elmer) after an incubation of 45 min at room temperature (Excitation 485 nm, Emission 530).

human TACE = human TACE (Homo sapiens (Human), UniProt P78536); experiment: hTACE 5FAM-[…]-5TAMRA cleavage assay; details: 75 min at room temperature, read-out: hTACE potency IC50
Experimental: Finally, the fluorescence is read on the Envision (Perkin Elmer) after an incubation of 75 min at room temperature (Excitation 485 nm, Emission 530).

rnADAMTS-5 (1-564-6H) = rnADAMTS-5 (1-564-6H) (Rattus norvegicus (Rat), UniProt Q6TY19); experiment: Rat ADAMTS-5 TBIS-1 substrate cleavage assay; details: rnADAMTS-5, TBIS-1 substrate, 120 min at 37° C.; read-out: Rat ADAMTS-5 potency IC50
Experimental: The basis for the assay is the cleavage of the substrate TBIS-1 (5 FAM-[…] (5TAMRA)K-NH2) (SEQ ID NO: 2) by rnADAMTS-5 (1-564-6H).
(§5) The reaction is initiated by adding to the assay plate TBIS-1 (10 μL, 4.5 μM, Anaspec) in the same buffer.
Finally, the fluorescence is read on the Envision (Perkin Elmer) after an incubation of 120 min at 37° C. (Excitation 485 nm, emission 535).

human ADAMTS6 = human ADAMTS6 (Homo sapiens (Human), UniProt Q9UKP5); experiment: hADAMTS-6 520 MMP FRET substrate XII cleavage assay; details: 37° C. for 2 h, read-out: hADAMTS-6 potency IC50
Method in brief: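 FRET cleavage of 520 MMP Substrate XII (Arg-Pro-Lys-Pro-Tyr-Ala-Nva-Trp-Met-Lys) by 0.73 nM enzyme in 25 mM Tris pH8.0, 0.05% CHAPS, 2.5 mM CaCl2. Compound dilution series from 20 μM top, 1/5 steps; substrate added from 1 μM stock, 2 h at 37° C. Fluorescence read at exc485/em530 for IC50.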

human ADAMTS-5 = human ADAMTS-5 (Homo sapiens (Human), UniProt Q9UNA0); experiment: hADAMTS-5 TBIS-1 cleavage assay, Protocol 3; details: Protocol 3, TBIS-1 substrate, 90 min at 37° C.; read-out: hADAMTS-5 potency IC50
Experimental: as §5
Finally, the fluorescence is read on the Envision (Perkin Elmer) after an incubation of 90 min at 37° C. (Excitation 485 nm, emission 530).

human MMP14 = human MMP14 (Homo sapiens (Human), UniProt P50281); experiment: hMMP14 390 MMP FRET Substrate I cleavage assay; details: 60 min at room temperature, read-out: hMMP-14 potency IC50
Experimental: The basis for the assay is the cleavage of the substrate 390 MMP FRET Substrate I (Anaspec Cat# AS-27076) by human MMP14 (Biomol, Cat#SE-259).
as §3
Finally, the fluorescence is read on the Envision (Perkin Elmer) after an incubation of 60 min at room temperature (Excitation 485 nm, Emission 530).

human MMP13 [2] = target: T1, human MMP13; experiment: hMMP13 390 MMP FRET Substrate I cleavage assay, Protocol 2; details: Protocol 2, 390 MMP FRET Substrate I; read-out: hMMP-13 potency IC50
Experimental: as §1, §2, §3, §4

Chain of human ADAMTS-5 (Q9UNA0 262-930): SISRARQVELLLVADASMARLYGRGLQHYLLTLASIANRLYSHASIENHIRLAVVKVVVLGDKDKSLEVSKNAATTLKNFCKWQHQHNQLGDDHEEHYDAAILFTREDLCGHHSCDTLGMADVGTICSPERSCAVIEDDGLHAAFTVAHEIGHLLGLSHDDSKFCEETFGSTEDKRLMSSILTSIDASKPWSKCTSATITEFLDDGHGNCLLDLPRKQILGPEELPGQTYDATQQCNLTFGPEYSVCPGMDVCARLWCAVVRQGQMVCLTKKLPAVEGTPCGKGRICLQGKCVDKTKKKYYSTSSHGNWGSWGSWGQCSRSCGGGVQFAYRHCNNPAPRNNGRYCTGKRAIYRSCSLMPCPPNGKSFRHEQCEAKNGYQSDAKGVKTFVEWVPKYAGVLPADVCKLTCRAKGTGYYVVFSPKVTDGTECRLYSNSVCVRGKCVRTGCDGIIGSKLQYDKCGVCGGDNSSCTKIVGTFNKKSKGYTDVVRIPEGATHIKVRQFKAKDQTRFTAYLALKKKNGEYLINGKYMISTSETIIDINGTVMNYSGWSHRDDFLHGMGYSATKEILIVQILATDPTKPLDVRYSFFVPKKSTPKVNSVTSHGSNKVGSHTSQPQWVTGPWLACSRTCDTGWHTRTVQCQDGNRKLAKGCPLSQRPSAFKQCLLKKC
Chain of human ADAMTS6 (Q9UKP5 other isoform, or with tags, fused parts or gaps): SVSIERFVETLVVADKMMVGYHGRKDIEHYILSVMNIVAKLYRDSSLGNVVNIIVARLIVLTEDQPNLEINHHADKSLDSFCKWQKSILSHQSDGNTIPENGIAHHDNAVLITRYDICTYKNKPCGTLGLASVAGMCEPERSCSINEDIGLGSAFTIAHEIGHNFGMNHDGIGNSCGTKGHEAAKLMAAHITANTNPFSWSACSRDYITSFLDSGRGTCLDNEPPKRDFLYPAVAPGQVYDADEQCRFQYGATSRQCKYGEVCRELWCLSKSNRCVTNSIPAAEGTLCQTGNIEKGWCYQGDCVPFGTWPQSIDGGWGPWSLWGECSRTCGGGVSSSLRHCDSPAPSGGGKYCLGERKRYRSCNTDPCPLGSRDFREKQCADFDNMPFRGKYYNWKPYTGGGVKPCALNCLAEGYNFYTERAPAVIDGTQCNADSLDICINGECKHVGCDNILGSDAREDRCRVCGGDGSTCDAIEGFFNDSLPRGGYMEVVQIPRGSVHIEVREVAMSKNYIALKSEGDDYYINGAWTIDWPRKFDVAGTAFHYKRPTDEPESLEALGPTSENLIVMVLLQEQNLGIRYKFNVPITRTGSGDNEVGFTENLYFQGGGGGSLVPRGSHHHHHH
Chain of human TACE (P78536 215-671): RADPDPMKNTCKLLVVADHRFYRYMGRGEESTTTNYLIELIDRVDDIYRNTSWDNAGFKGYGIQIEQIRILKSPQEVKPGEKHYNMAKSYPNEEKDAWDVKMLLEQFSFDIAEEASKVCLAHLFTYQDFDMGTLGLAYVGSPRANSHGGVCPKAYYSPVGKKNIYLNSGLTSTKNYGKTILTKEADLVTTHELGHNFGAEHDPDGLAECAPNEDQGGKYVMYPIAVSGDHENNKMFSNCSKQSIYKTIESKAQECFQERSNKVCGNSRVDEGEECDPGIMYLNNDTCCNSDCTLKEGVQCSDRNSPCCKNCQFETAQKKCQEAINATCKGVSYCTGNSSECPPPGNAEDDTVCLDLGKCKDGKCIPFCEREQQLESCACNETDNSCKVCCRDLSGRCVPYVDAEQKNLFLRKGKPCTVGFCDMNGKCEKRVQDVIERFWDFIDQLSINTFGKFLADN
Chain of rnADAMTS-5 (1-564-6H) (Q6TY19 entry or part of it): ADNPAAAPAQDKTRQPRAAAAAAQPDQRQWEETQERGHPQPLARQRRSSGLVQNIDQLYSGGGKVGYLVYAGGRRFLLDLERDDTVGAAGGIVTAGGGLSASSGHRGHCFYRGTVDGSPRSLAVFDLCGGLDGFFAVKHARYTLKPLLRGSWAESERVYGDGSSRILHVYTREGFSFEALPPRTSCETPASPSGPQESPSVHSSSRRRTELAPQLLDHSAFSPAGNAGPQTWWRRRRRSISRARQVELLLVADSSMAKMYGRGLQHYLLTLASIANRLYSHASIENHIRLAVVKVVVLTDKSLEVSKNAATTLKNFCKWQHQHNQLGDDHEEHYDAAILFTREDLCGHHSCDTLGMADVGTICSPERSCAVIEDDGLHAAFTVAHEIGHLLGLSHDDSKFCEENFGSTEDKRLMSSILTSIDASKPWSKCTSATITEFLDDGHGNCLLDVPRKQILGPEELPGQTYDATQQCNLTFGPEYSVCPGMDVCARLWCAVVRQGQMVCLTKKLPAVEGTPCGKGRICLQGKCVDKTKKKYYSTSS

SMILES	IC50 (human MMP13 [1])	IC50 (human TACE; 5FAM-LAQAVRSSSRK-5TAMRA)	IC50 (rnADAMTS-5 (1-564-6H))	IC50 (human ADAMTS6)	IC50 (human ADAMTS-5)	IC50 (human TACE; 5FAM-[…]-5TAMRA)	IC50 (human MMP14)	IC50 (human MMP13 [2])
C[C@@H](C[C@@]1(C)NC(=O)NC1=O)C(=O)N1CCC(c2ccc(Cl)cc2)CC1 (stereo in doubt) [Cpd 24, 5-(3-(4-(4-chlorophenyl)piperidin-1-yl)-2-methyl-3-oxopropyl)-5-methyl imidazolidine-2,4-dione]	> 100 nM	> 100 nM	50 to 100 nM	0.001 to 25 nM	50 to 100 nM	–	–	–
C[C@@H](C[C@@]1(C)NC(=O)NC1=O)C(=O)N1CCC(c2cc(Cl)cc(Cl)c2)CC1 (stereo in doubt) [Cpd 25, 5-(3-(4-(3,5-dichlorophenyl)piperidin-1-yl)-2-methyl-3-oxopropyl)-5-methyl-imidazolidine-2,4-dione]	> 100 nM	–	25 to 50 nM	0.001 to 25 nM	25 to 50 nM	50 to 100 nM	–	–
C[C@@H](C[C@@]1(C)NC(=O)NC1=O)C(=O)N1CCC(c2ccc(F)cc2)CC1 (stereo in doubt) [Cpd 26, 5-(3-(4-(4-fluorophenyl)piperidin-1-yl)-2-methyl-3-oxopropyl)-5-methyl-imidazolidine-2,4-dione]	> 100 nM	> 100 nM	50 to 100 nM	25 to 50 nM	50 to 100 nM	–	–	–
O=C1NC(=O)C(CCC(=O)N2CCC(c3cc(Cl)cc(Cl)c3)CC2)(C2CC2)N1 (centres unmarked) [Cpd 17, 5-cyclopropyl-5-(3-(4-(3,5-dichlorophenyl)piperidin-1-yl)-3-oxopropyl) imidazolidine-2,4-dione]	> 100 nM	> 100 nM	50 to 100 nM	50 to 100 nM	50 to 100 nM	–	–	–
O=C1NC(=O)C(CCC(=O)N2CCC(c3cccc(Cl)c3)CC2)(C2CC2)N1 (centres unmarked) [Cpd 18, 5-(3-(4-(3-chlorophenyl)piperidin-1-yl)-3-oxopropyl)-5-cyclopropyl-imidazolidine-2,4-dione]	> 100 nM	> 100 nM	50 to 100 nM	> 100 nM	25 to 50 nM	–	–	–

Next, values leading:

IC50 (human MMP13 [1])	IC50 (human TACE; 5FAM-LAQAVRSSSRK-5TAMRA)	IC50 (rnADAMTS-5 (1-564-6H))	IC50 (human ADAMTS6)	IC50 (human ADAMTS-5)	IC50 (human TACE; 5FAM-[…]-5TAMRA)	IC50 (human MMP14)	IC50 (human MMP13 [2])	SMILES
> 100 nM	–	25 to 50 nM	25 to 50 nM	25 to 50 nM	50 to 100 nM	–	–	Cc1cccc(C2CCN(C(=O)[C@@H](C)C[C@@]3(C)NC(=O)NC3=O)CC2)c1 (stereo in doubt) [Cpd 27, 5-methyl-5-(2-methyl-3-oxo-3-(4-m-tolylpiperidin-yl)propyl) imidazolidine-2,4-dione]
> 100 nM	> 100 nM	0.001 to 25 nM	50 to 100 nM	25 to 50 nM	–	–	–	C[C@@H](C[C@@]1(C)NC(=O)NC1=O)C(=O)N1CCC(c2cccc(F)c2)CC1 (stereo in doubt) [Cpd 28, 5-(3-(4-(3-fluorophenyl)piperidin-1-yl)-2-methyl-3-oxopropyl)-5-methyl-imidazolidine-2,4-dione]
> 100 nM	–	0.001 to 25 nM	25 to 50 nM	25 to 50 nM	50 to 100 nM	–	–	C[C@@H](C[C@@]1(C)NC(=O)NC1=O)C(=O)N1CCC(c2cccc(Cl)c2)CC1 (stereo in doubt) [Cpd 29, 5-(3-(4-(3-chlorophenyl)piperidin-1-yl)-2-methyl-3-oxopropyl)-5-methyl-imidazolidine-2,4-dione]
–	–	–	0.001 to 25 nM	50 to 100 nM	50 to 100 nM	> 100 nM	> 100 nM	COc1cc(Cl)c(F)cc1C1CCN(C(=O)C(C)CC2(C)NC(=O)NC2=O)CC1 (centres unmarked) [Cpd 110, 5-[3-[4-(4-chloro-5-fluoro-2-methoxy-phenyl)-1-piperidyl]-2-methyl-3-oxo-propyl]-5-methyl-imidazolidine-2,4-dione]
–	–	–	0.001 to 25 nM	> 100 nM	50 to 100 nM	> 100 nM	> 100 nM	COc1cc(C2CCN(C(=O)CC[C@H]3NC(=O)NC3=O)CC2)cc(C)c1Cl [Cpd 115, (5R)-5-[3-[4-(4-chloro-3-methoxy-5-methyl-phenyl)-1-piperidyl]-3-oxo-propyl] imidazolidine-2,4-dione]
